Laboratory results taken from US20240041042A1, “1-(PYRIDYL)-5-AZINYLPYRAZOLE DERIVATIVES, AND THEIR USE FOR CONTROL OF UNDESIRED PLANT GROWTH” (Bayer Aktiengesellschaft, priority 2020, published 2024).
Read-outs that look alike come from different tables or passages of the source.

What was measured:
Format in all cases: in vivo
Lolium rigidum (LOLRI) [1] = assay: Pre-emergence herbicidal action against LOLRI; conditions: dosage 320 g/ha
From the text: (§1) Seeds of monocotyledonous and dicotyledonous weed plants and crop plants are placed in plastic or organic planting pots and covered with soil. The compounds of the invention, formulated in the form of wettable powders (WP) or as emulsion concentrates (EC), are then applied to the surface of the covering soil as aqueous suspension or emulsion with addition of 0.5% additive at a water application rate equivalent to 600 l/ha. After the treatment, the pots are placed in a greenhouse and kept under good growth conditions for the trial plants. After about 3 weeks, the effect of the preparations is scored visually in comparison with untreated controls as percentages. For example, 100% activity=the plants have died, 0% activity=like control plants.
(§2) Tables A1 to A13 below show the effects of selected compounds of the general formula (I) on various harmful plants and at an application rate corresponding to 320 g/ha or lower, which were obtained by the experimental procedure mentioned above. The appendices “a”, “b” and “c” give differentiation by dosage used with otherwise the same harmful plants tested.

Oryza sativa (ORYSA) = conditions: crop plant compatibility
Procedure: (§3) Seeds of monocotyledonous and dicotyledonous weeds and crop plants are placed in sandy loam in plastic or organic planting pots, covered with soil and cultivated in a greenhouse under controlled growth conditions. 2 to 3 weeks after sowing, the test plants are treated at the one-leaf stage. The compounds of the invention, formulated in the form of wettable powders (WP) or as emulsion concentrates (EC), are then sprayed onto the green parts of the plants as aqueous suspension or emulsion with addition of 0.5% additive at a water application rate of 600 l/ha (converted). After the test plants have been kept in the greenhouse under optimum growth conditions for about 3 weeks, the activity of the preparations is rated visually in comparison to untreated controls. For example, 100% activity=the plants have died, 0% activity=like control plants.
(§4) The observed effects on selected crop plants are reported here in comparison to the untreated controls (values in %). The appendices “a”, “b” and “c” give differentiation by dosage used with otherwise the same crop plants tested.

Zea mays (ZEAMX) = conditions: 20 g/ha, ZEAMX, effect in comparison to untreated controls
Procedure: as §3, §4

Setaria viridis (SETVI) [2] = assay: Pre-emergence herbicidal action against SETVI
From the text: as §1, §2

Avena fatua (AVEFA) = assay: Pre-emergence herbicidal action against AVEFA; conditions: 320 g/ha, visual scoring after about 3 weeks vs untreated controls
From the text: as §1, §2

[3] = tested on: Matricaria inodora (MATIN); assay: Pre-emergence herbicidal action against MATIN
From the text: as §1, §2

[4] = tested on: Verconica persica (VERPE); assay: Pre-emergence herbicidal action against VERPE
From the text: as §1, §2

Setaria viridis (SETVI) [5] = assay: Post-emergence herbicidal action against SETVI
Procedure: as §3
(§5) Tables B1 to B13 below show the effects of selected compounds of the general formula (I) according to Table 1 on various harmful plants and at an application rate corresponding to 320 g/ha or lower, which were obtained by the experimental procedure mentioned above. The appendices “a”, “b” and “c” give differentiation by dosage used with otherwise the same harmful plants tested.

Viola tricolor (VIOTR) = assay: Pre-emergence herbicidal action against VIOTR
From the text: as §1, §2

[6] = tested on: Echinochloa crus-galli (ECHCG); assay: Pre-emergence herbicidal action against ECHCG
From the text: as §1, §2

[7] = tested on: Pharbitis purpurea (PHBPU); assay: Pre-emergence herbicidal action against PHBPU
From the text: as §1, §2

[8] = tested on: Echinochloa crus-galli (ECHCG); assay: Post-emergence herbicidal action against ECHCG
Procedure: as §3, §5

[9] = tested on: Amaranthus retroflexus (AMARE); assay: Post-emergence herbicidal action against AMARE
Procedure: as §3, §5

[10] = tested on: Alopecurus myosuroides (ALOMY); assay: Pre-emergence herbicidal action against ALOMY; conditions: scored visually after about 3 weeks, 100% = plants have died
From the text: as §1, §2

[11] = tested on: Verconica persica (VERPE); assay: Post-emergence herbicidal action against VERPE
Procedure: as §3, §5

[12] = tested on: Amaranthus retroflexus (AMARE); assay: Pre-emergence herbicidal action against AMARE; conditions: visual scoring after about 3 weeks vs untreated controls
From the text: as §1, §2

[13] = tested on: Matricaria inodora (MATIN); assay: Post-emergence herbicidal action against MATIN
Procedure: as §3, §5

[14] = tested on: Polygonum convolvulus (POLCO); assay: Pre-emergence herbicidal action against POLCO
From the text: as §1, §2

[15] = tested on: Alopecurus myosuroides (ALOMY); assay: Post-emergence herbicidal action against ALOMY; conditions: visual rating about 3 weeks after treatment vs untreated controls (100% = plants have died, 0% = like control plants)
Procedure: as §3, §5

[16] = tested on: Pharbitis purpurea (PHBPU); assay: Post-emergence herbicidal action against PHBPU
Procedure: as §3, §5

Lolium rigidum (LOLRI) [17] = assay: Post-emergence herbicidal action against LOLRI; conditions: dosage 320 g/ha
Procedure: as §3, §5

[18] = tested on: Abutilon theophrasti (ABUTH); assay: Post-emergence herbicidal action against ABUTH; conditions: 320 g/ha, visual rating about 3 weeks after treatment vs untreated controls (100% = plants have died, 0% = like control plants)
Procedure: as §3, §5

[19] = 80 g/ha, effect in comparison to untreated controls

| Post-emergence action against ORYSA in % (Oryza sativa (ORYSA); [19]) | SMILES | Pre-emergence action against LOLRI in % (Lolium rigidum (LOLRI) [1]) | Pre-emergence action against SETVI in % (Setaria viridis (SETVI) [2]; dosage 80 g/ha) | Pre-emergence action against SETVI in % (Setaria viridis (SETVI) [2]; dosage 320 g/ha) | Pre-emergence action against MATIN in % ([3]; dosage 320 g/ha) | Pre-emergence action against VERPE in % ([4]; dosage 320 g/ha) | Post-emergence action against SETVI in % (Setaria viridis (SETVI) [5]; dosage 80 g/ha) | Pre-emergence action against VIOTR in % (Viola tricolor (VIOTR); 320 g/ha, Viola tricolor) | Pre-emergence action against ECHCG in % ([6]; dosage 320 g/ha) | Pre-emergence action against PHBPU in % ([7]; dosage 320 g/ha) | Post-emergence action against ECHCG in % ([8]; dosage 80 g/ha) | Pre-emergence action against ALOMY ([10]; 80 g/ha) | Pre-emergence action against ALOMY ([10]; 320 g/ha) | Post-emergence action against VERPE in % ([11]; dosage 80 g/ha) | Pre-emergence action against AMARE in % ([12]; 80 g/ha) | Pre-emergence action against AMARE in % ([12]; 320 g/ha) | Post-emergence action against MATIN in % ([13]; dosage 80 g/ha) | Pre-emergence action against POLCO in % ([14]; dosage 320 g/ha) | further results |
| --- | --- | --- | --- | --- | --- | --- | --- | --- | --- | --- | --- | --- | --- | --- | --- | --- | --- | --- | --- |
| 10% | COC(=O)CCOC(=O)COc1nn(-c2ccccn2)c(-c2ccc(F)nc2)c1Br [Example I-116] | 100% | 90% | 100% | 90% | 90% | 80% | 90% | 100% | 90% | 80% | 90% | 100% | 80% | 90% | 100% | 80% | 90% | Post-emergence action against ORYSA in % (Oryza sativa (ORYSA); 20 g/ha, effect vs untreated controls): 10%; Post-emergence action against ZEAMX in % (crop plant compatibility) (Zea mays (ZEAMX)): 20%; Pre-emergence action against AVEFA in % (Avena fatua (AVEFA)): 90%; Pre-emergence action against VERPE in % ([4]; dosage 80 g/ha): 90%; Post-emergence action against AMARE in % ([9]; 80 g/ha, visual rating about 3 weeks after treatment vs untreated controls (100% = plants have died, 0% = like control plants)): 90%; Post-emergence action against ALOMY in % ([15]; 80 g/ha): 90% |
| 10% | COC(=O)COc1nn(-c2nc(F)ccc2F)c(-c2cncc(F)c2)c1Br [Example I-210] | 80% | 90% | 100% | 90% | 100% | 80% | 100% | 100% | 90% | 80% | 80% | 90% | 90% | 80% | 100% | 80% | 100% | Post-emergence action against PHBPU in % ([16]; dosage 80 g/ha): 90%; Post-emergence action against PHBPU in % ([16]; dosage 320 g/ha): 100%; Post-emergence action against LOLRI in % (Lolium rigidum (LOLRI) [17]): 80%; Pre-emergence action against MATIN in % ([3]; dosage 80 g/ha): 90%; Post-emergence action against SETVI in % (Setaria viridis (SETVI) [5]; dosage 320 g/ha): 80%; Pre-emergence action against VIOTR in % (Viola tricolor (VIOTR); dosage 80 g/ha): 90%; Pre-emergence action against ECHCG in % ([6]; dosage 80 g/ha): 90%; Pre-emergence action against PHBPU in % ([7]; dosage 80 g/ha): 90%; Post-emergence action against ECHCG in % ([8]; dosage 320 g/ha): 80%; Post-emergence action against AMARE in % ([9]; 320 g/ha, visual rating about 3 weeks after treatment): 80%; Post-emergence action against VERPE in % ([11]; 320 g/ha, VERPE): 90%; Post-emergence action against ABUTH in % [18]: 80%; Post-emergence action against MATIN in % ([13]; dosage 320 g/ha): 80%; Pre-emergence action against POLCO in % ([14]; dosage 80 g/ha): 90%; Post-emergence action against ALOMY in % ([15]; 320 g/ha): 90% |
